Data from PMC9814781, “Structure-based design of a dual-warhead covalent inhibitor of FGFR4” (Communications Chemistry, 2022).

Tests used:
Test in all cases: Kinase selectivity profiling
Erk5 = Erk5 (Homo sapiens, UniProt Q13164)
IGF1R = IGF1R (Homo sapiens, UniProt P08069)
MST2 = MST2 (Homo sapiens, UniProt Q13188)
DCAMKL2 = DCAMKL2 (Homo sapiens, UniProt Q8N568)
EPHA5 = EPHA5 (Homo sapiens, UniProt P54756)
HIPK4 = HIPK4 (Homo sapiens, UniProt Q8NE63)
BRAF = BRAF (Homo sapiens, UniProt P15056)
RON = RON (Homo sapiens, UniProt Q04912)
CDK16/CycY = CDK16/CycY (Homo sapiens, UniProt Q00536)
FLT1 (VEGFR1) = FLT1 (VEGFR1) (Homo sapiens, UniProt P17948)
FLT4 (VEGFR3) = FLT4 (VEGFR3) (Homo sapiens, UniProt P35916)
PAK1 = PAK1 (Homo sapiens, UniProt Q13153)
HIPK2 = HIPK2 (Homo sapiens, UniProt Q9H2X6)
Chain of HIPK2 (Q9H2X6 whole entry): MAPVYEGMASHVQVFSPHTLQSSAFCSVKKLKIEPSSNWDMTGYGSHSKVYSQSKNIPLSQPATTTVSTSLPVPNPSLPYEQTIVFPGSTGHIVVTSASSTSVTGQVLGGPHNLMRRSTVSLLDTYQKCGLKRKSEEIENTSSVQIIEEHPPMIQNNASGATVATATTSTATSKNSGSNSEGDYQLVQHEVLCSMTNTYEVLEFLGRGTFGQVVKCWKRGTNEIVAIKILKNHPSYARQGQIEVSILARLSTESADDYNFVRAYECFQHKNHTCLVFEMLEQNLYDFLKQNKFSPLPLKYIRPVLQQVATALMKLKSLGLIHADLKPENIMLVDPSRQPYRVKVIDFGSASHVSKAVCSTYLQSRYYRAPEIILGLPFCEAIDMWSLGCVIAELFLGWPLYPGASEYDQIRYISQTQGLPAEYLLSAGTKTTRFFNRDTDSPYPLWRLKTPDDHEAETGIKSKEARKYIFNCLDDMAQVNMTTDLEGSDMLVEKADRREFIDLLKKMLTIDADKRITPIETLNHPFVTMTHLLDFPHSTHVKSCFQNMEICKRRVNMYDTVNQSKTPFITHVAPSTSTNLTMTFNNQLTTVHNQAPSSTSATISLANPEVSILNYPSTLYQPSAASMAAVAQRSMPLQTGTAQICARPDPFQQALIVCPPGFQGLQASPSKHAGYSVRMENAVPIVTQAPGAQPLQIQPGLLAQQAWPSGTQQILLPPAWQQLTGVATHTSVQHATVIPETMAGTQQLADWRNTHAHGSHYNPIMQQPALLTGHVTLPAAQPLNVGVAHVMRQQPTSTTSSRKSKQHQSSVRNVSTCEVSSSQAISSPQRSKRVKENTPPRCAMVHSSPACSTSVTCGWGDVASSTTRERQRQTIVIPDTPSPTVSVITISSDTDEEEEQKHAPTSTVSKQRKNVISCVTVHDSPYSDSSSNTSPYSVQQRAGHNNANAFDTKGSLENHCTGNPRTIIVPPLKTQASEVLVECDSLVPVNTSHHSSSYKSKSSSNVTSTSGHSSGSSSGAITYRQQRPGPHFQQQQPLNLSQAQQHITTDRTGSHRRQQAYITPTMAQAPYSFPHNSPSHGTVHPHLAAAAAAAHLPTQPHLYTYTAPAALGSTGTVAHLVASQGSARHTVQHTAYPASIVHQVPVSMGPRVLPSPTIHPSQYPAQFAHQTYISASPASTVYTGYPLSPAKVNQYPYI

ACK = ACK (Homo sapiens, UniProt Q07912)
Chain of ACK (Q07912 whole entry): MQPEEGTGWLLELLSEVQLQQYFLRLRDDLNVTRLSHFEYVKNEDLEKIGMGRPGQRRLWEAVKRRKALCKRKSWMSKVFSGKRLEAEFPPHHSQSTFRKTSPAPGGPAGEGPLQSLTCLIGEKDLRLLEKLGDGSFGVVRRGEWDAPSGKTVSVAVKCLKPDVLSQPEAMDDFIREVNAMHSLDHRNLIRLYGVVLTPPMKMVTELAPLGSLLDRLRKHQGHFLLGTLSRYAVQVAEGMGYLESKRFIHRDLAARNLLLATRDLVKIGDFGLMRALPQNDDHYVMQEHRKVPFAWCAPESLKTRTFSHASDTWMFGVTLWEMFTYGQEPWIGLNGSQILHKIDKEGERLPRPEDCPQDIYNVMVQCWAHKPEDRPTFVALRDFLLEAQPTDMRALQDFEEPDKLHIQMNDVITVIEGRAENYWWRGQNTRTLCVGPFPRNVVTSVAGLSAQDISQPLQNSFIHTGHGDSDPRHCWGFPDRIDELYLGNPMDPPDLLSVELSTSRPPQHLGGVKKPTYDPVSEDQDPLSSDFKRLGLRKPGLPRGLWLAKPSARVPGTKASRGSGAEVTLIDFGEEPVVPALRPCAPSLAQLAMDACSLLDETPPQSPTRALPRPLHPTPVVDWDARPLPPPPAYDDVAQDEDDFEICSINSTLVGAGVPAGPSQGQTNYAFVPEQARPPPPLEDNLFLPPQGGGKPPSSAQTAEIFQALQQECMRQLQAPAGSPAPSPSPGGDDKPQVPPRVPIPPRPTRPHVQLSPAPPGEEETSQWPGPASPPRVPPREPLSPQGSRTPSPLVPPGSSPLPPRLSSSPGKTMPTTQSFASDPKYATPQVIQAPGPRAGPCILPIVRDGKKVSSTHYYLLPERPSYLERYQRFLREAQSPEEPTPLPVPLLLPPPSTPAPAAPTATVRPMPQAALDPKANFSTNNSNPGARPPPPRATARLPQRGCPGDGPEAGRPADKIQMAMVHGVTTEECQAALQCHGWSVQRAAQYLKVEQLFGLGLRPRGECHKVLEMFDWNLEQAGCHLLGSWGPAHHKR

CHK2 = CHK2 (Homo sapiens, UniProt O96017)
Chain of CHK2 (O96017 whole entry): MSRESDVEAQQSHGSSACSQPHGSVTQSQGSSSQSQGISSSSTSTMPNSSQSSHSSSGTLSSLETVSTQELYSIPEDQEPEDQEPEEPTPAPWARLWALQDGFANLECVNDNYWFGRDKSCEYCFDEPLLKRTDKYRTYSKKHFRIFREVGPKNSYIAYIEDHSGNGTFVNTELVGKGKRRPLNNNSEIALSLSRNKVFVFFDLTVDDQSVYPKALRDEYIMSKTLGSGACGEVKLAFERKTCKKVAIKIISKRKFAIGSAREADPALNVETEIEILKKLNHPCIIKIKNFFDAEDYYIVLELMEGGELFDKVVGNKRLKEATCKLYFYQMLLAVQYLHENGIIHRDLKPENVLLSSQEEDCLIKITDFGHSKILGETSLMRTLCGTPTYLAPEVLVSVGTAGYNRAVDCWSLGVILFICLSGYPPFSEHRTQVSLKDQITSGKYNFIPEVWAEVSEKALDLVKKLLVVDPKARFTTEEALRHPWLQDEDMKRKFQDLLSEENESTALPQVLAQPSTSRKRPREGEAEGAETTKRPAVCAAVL

HCK = HCK (Homo sapiens, UniProt P08631)
DCAMKL1 = DCAMKL1 (Homo sapiens, UniProt O15075)
EPHB1 = EPHB1 (Homo sapiens, UniProt P54762)
PAK2 = PAK2 (Homo sapiens, UniProt Q13177)
SRM = SRM (Homo sapiens, UniProt Q9H3Y6)
EPHA2 = EPHA2 (Homo sapiens, UniProt P29317)
Chain of EPHA2 (P29317 24-976): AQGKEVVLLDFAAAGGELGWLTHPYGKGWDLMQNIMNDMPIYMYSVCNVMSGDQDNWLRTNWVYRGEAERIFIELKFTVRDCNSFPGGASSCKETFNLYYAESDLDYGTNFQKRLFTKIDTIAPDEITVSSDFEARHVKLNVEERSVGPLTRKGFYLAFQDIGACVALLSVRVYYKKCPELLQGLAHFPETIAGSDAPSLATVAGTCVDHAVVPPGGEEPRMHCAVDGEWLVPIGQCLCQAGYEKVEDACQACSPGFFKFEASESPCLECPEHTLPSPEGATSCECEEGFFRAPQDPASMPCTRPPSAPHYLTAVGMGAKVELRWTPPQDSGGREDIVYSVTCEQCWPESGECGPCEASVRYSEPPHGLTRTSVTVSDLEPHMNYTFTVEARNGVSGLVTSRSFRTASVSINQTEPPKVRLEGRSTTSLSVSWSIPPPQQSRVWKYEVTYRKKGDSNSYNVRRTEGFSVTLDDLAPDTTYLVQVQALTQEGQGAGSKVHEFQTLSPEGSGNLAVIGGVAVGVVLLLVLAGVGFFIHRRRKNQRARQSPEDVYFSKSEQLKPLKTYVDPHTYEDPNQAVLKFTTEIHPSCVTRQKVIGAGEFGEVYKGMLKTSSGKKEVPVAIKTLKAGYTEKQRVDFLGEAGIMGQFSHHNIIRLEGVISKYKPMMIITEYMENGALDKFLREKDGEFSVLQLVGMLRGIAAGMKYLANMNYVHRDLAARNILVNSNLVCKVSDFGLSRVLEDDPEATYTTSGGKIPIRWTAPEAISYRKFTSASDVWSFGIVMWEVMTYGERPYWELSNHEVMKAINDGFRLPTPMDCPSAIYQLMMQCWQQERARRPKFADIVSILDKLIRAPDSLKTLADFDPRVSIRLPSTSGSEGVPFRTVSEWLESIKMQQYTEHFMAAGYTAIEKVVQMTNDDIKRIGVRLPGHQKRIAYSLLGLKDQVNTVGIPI

TAOK2 = TAOK2 (Homo sapiens, UniProt Q9UL54)
INSR = INSR (Homo sapiens, UniProt P06213)
EGFR = EGFR (Homo sapiens, UniProt P00533)
PIK3CD/PIK3R1 = PIK3CD/PIK3R1 (Homo sapiens, UniProt O00329)
DDR2 = DDR2 (Homo sapiens, UniProt Q16832)
PIM1 = PIM1 (Homo sapiens, UniProt P11309)
ALK4 = ALK4 (Homo sapiens, UniProt P36896)
FGFR3 = FGFR3 (Homo sapiens, UniProt P22607)
HIPK1 = HIPK1 (Homo sapiens, UniProt Q86Z02)
PLK1 = PLK1 (Homo sapiens, UniProt P53350)
CK1α(CSNK1A1) = CK1α(CSNK1A1) (Homo sapiens, UniProt P48729)
Chain of CK1α(CSNK1A1) (P48729 whole entry): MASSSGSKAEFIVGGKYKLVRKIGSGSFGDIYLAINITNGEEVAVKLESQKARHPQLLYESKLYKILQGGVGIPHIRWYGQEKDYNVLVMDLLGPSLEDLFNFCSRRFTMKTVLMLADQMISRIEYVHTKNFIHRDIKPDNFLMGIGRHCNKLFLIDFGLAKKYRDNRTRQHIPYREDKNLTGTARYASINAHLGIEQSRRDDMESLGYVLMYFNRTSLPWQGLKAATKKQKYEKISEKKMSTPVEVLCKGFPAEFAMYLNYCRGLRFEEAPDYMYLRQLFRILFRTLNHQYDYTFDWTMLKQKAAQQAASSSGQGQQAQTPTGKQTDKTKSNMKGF

CDK7/CycH/MAT1 = CDK7/CycH/MAT1 (Homo sapiens, UniProt P50613)
LCK = LCK (Homo sapiens, UniProt P06239)
p38α = p38α (Homo sapiens, UniProt Q16539)
JNK1 = JNK1 (Homo sapiens, UniProt P45983)
AKT3 = AKT3 (Homo sapiens, UniProt Q9Y243)
FMS (CSF1R) = FMS (CSF1R) (Homo sapiens, UniProt P07333)
RSK4 = RSK4 (Homo sapiens, UniProt Q9UK32)
CDK1/CycA2 = CDK1/CycA2 (Homo sapiens, UniProt P06493)
Chain of CDK1/CycA2 (P06493 whole entry): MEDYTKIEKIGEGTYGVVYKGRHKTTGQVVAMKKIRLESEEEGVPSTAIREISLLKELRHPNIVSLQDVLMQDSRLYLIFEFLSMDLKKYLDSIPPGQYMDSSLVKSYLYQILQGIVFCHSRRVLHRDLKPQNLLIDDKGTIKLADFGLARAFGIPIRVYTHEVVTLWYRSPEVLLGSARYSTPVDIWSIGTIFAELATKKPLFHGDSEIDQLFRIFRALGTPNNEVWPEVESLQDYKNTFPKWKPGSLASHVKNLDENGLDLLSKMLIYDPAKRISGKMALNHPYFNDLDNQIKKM
Chain of CDK1/CycA2 (P20248 whole entry partner): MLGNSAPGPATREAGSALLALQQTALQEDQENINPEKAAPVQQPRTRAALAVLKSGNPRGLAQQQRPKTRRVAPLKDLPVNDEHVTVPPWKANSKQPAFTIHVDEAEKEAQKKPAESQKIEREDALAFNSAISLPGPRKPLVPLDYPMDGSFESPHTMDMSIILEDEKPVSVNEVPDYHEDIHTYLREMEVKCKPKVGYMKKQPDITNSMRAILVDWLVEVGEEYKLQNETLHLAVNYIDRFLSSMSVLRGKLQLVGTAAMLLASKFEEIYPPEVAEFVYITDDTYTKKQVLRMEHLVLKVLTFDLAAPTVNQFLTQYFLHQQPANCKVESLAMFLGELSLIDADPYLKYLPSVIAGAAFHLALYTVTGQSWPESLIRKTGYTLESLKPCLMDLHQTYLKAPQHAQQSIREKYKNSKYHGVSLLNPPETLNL

CK1γ2 = CK1γ2 (Homo sapiens, UniProt P78368)

Question: What does the source list for C=CC(=O)Nc1ccccc1Nc1ncc2c(n1)N(CCCN1CCN(C(=O)C=C)CC1)C(=O)N(c1cc(OC)cc(OC)c1)C2 [CXF-009]?
Answer: inhibition at 1 µM (Erk5): 14%; inhibition at 1 µM (IGF1R): -2.13%; inhibition at 1 µM (MST2): -8.12%; inhibition at 1 µM (DCAMKL2): 18.9%; inhibition at 1 µM (EPHA5): 8.67%; inhibition at 1 µM (HIPK4): 2.32%; inhibition at 1 µM (BRAF): -0.93%; inhibition at 1 µM (RON): -4.53%; inhibition at 1 µM (CDK16/CycY): -7.9%; inhibition at 1 µM (FLT1 (VEGFR1)): 5.91%; inhibition at 1 µM (FLT4 (VEGFR3)): 0.74%; inhibition at 1 µM (PAK1): 3.22%; inhibition at 1 µM (HIPK2): -5.04%; inhibition at 1 µM (ACK): 4.18%; inhibition at 1 µM (CHK2): -3.02%; inhibition at 1 µM (HCK): -11.6%; inhibition at 1 µM (DCAMKL1): 13.4%; inhibition at 1 µM (EPHB1): -1.49%; inhibition at 1 µM (PAK2): 3.22%; inhibition at 1 µM (SRM): 5.29%; inhibition at 1 µM (EPHA2): 2.12%; inhibition at 1 µM (TAOK2): -3.76%; inhibition at 1 µM (INSR): 0.8%; inhibition at 1 µM (EGFR): -16.3%; inhibition at 1 µM (PIK3CD/PIK3R1): -44.4%; inhibition at 1 µM (DDR2): 2.15%; inhibition at 1 µM (PIM1): 24.2%; inhibition at 1 µM (ALK4): 0.23%; inhibition at 1 µM (FGFR3): 11.1%; inhibition at 1 µM (HIPK1): -5.67%; inhibition at 1 µM (PLK1): 0.59%; inhibition at 1 µM (CK1α(CSNK1A1)): 2.6%; inhibition at 1 µM (CDK7/CycH/MAT1): 1.27%; inhibition at 1 µM (LCK): -3.46%; inhibition at 1 µM (p38α): 10.6%; inhibition at 1 µM (JNK1): -4.4%; inhibition at 1 µM (AKT3): -0.52%; inhibition at 1 µM (FMS (CSF1R)): 15.4%; inhibition at 1 µM (RSK4): 0%; inhibition at 1 µM (CDK1/CycA2): -1.02%; inhibition at 1 µM (CK1γ2): -4.8%
